System: ALS7 (C9orf72) cell-derived motor neurons
Test: RNA foci inhibitory activity (FISH with Cy3 probe, high-content analysis)
Format: cell-based, human
Conditions: one day after addition, vs DMSO
Text: Using ALS7 (C9orf72) cell line described in K. Imamura et al, Science Translational Medicine 2017, 9, eaaf3962, the effect of the compound used in the present invention on RNA foci was examined. The cell line is stable cell line prepared by introducing the tetracycline-induced Lhx3, Ngn2 and Isl1 genes into iPS cell lines established from a familial ALS patient with abnormal expansion of the G4C2 repeat of the C9orf72 gene. Therefore, ALS7 (C9orf72) cell is an ALS cell model that rapidly (within about 7 days) differentiates into motor neurons when tetracycline or a derivative thereof is added to the medium, and after differentiation, spontaneously goes on to cell death (see the above documents). […] ALS7 (C9orf72) cells were cultured on feeder cells (mitomycin-treated SNL cells) using an iPS cell maintenance medium consisting of Primate ES Cell medium (ReproCell, […]), 4 ng/ml hbFGF (Wako, 060-04543), 50 μg/ml G418 (Nacalai, 09380-86) and Penicillin-Streptomycin (Thermo Fisher Scientific, 15140-122). The method for seeding ALS7 (C9orf72) cells on an assay plate is as follows. Matrigel (BD Falcon, D2650) was diluted 20-fold with an assay medium consisting of DMEM/F-12 (1:1) (Thermo Fisher Scientific, 11330-057), N2 supplement (Thermo Fisher Scientific, 17502-048), Penicillin-Streptomycin (Thermo Fisher Scientific, 15140-122), 10 ng/ml recombinant human BDNF (PeproTech, 450-02), 10 ng/ml recombinant human GDNF (PeproTech, 450-10), 10 ng/ml recombinant human NT-3 (PeproTech, 450-03), 1 μM Retinoic acid (Sigma, R2625), 1 μg/ml Doxycycline (Clontech, 631311), 1 μM SAG (Enzo life sciences, ALX-270-426-M001) and 10 μ[…] (Wako, 253-00513), and then a 384-well plate (CellCarrier-384 Ultra, PerkinElmer, 6057300) was coated with the diluted solution. The ALS7 (C9orf72) cells were then suspended in the assay medium, and seeded on the matrigel-coated assay plate at 1×10^4 cells per well. The fluorescent staining method of RNA foci in motor neurons differentiated from ALS7 (C9orf72) cells is as follows. For the ALS7 (C9orf72) cells seeded on the assay plate according to the method described in the previous section, the assay medium containing no Y-27632 was added to the plate four days after seeding, and the cells were cultured. Seven days after seeding, the assay medium (Retinoic Acid, Doxycycline, SAG, Y-27632-free) containing the test compound at a predetermined concentration was added to the plate by medium exchange, and one day after addition of the test compound, PFA (Wako, 163-20145) was added to the plate to fix the cells. After washing with PBS (Wako, 045-29795) was repeated three times, ice-cold methanol (Wako, 131-01826) was added to the plate, and the plate was allowed to stand for 10 minutes at room temperature. DNA probe [[NT] ID NO:1), SIGMA genosys, custom synthesis] was denatured at 80° C. for 75 sec, prepared to 2 μg/μL in a hybri buffer consisting of 50% formamide (Wako, 066-02301), 2×SSC (Nippon Gene, 319-90015), 50 mM sodium phosphate (TEKNOVA, […]), 10% Dextran sulfate (SIGMA, […]), 0.1 mg/mL yeast tRNA ([…], 15401029) and RNase free water (QIAGEN, 129112), and added to the plate, and the plate was allowed to stand at 37° C. for 16 to 24 hrs to bind the probe to the RNA foci. A wash buffer consisting of 50% formamide, 1×SSC and RNase free water was added to the plate, and the plate was allowed to stand at 37° C. for 30 minutes, followed by washing with PBS. Hoechst (invitrogen, H3569) diluted 5000-fold with by PBS was added to the plate, and the plate was allowed to stand for 20 minutes at room temperature to stain the cell nuclei, followed by washing with PBS. The RNA foci in the cell nuclei were detected by analyzing the above treated plate (measuring Cy3 fluorescence) with a high-content analyzer. The high-content analyzer used was Opera Phenix from PerkinElmer. […] The method for detecting the activity of the test compound is as follows.

SMILES | RNA foci inhibitory activity % (1 μM test compound) | RNA foci inhibitory activity % (3 μM test compound) | RNA foci inhibitory activity % (10 μM test compound)
CCOC(=O)N=S(C)(=O)Cc1cccc(Nc2ncnc(-c3cccc4c3OCCO4)n2)c1 (stereo not drawn) [Compound No. 6, ethyl {[(3-{[4-(2,3-dihydro-1,4-benzodioxin-5-yl)-1,3,5-triazin-2-yl]amino}phenyl)methyl](methyl)oxo-λ^6-sulfanylidene}carbamate] | 62% | 48% | 48%
NS(=O)(=O)Cc1cccc(Nc2ncnc(-c3ccccc3OCc3ccccc3)n2)c1.O=C(O)C(F)(F)F [Compound No. 4a, 1-[3-({4-[2-(benzyloxy)phenyl]-1,3,5-triazin-2-yl}amino)phenyl]methanesulfonamide trifluoroacetate] | 50% | 45% | 45%
CCOC(=O)N=S(C)(=O)Cc1cccc(Nc2ncnc(-c3cccc4c3OCC4)n2)c1 (stereo not drawn) [Compound No. 7, ethyl {[(3-{[4-(2,3-dihydro-1-benzofuran-7-yl)-1,3,5-triazin-2-yl]amino}phenyl)methyl](methyl)oxo-λ^6-sulfanylidene}carbamate] | 47% | 55% | 43%
COc1cc(Cl)ccc1-c1ncnc(Nc2cccc(CS(N)(=O)=O)c2)n1 [Compound No. 3, 1-(3-{[4-(4-chloro-2-methoxyphenyl)-1,3,5-triazin-2-yl]amino}phenyl)methanesulfonamide] | 16% | 55% | 51%
COc1ccccc1-c1ncnc(Nc2cccc(CS(N)(=O)=O)c2)n1 [Compound No. 2, 1-(3-{[4-(2-methoxyphenyl)-1,3,5-triazin-2-yl]amino}phenyl)methanesulfonamide] | 20% | 49% | 55%
CS(=N)(=O)Cc1cccc(Nc2ncnc(-c3ccccc3OCc3ccc(Cl)c(Cl)c3)n2)c1 (stereo not drawn) [Compound No. 5, 4-{2-[(3,4-dichlorophenyl)methoxy]phenyl}-N-{3-[(S-methanesulfonimidoyl)methyl]phenyl}-1,3,5-triazin-2-amine] | 61% | 44% | 50%
NS(=O)(=O)Cc1cccc(Nc2ncnc(-c3ccccc3OCc3ccccc3)n2)c1 [Compound No. 4b, 1-[3-({4-[2-(benzyloxy)phenyl]-1,3,5-triazin-2-yl}amino)phenyl]methanesulfonamide] | 52% | 41% | 47%
COc1cc(F)ccc1-c1ncnc(Nc2cccc(CS(C)(=N)=O)c2)n1 (stereo not drawn) [Compound No. 1, 4-(4-fluoro-2-methoxyphenyl)-N-{3-[(S-methanesulfonimidoyl)methyl]phenyl}-1,3,5-triazin-2-amine] | 48% | 58% | 46%
